Measured values published in ChEMBL document CHEMBL4028815, “Novel phosphonate analogs of sulforaphane: Synthesis, in vitro and in vivo anticancer activity” (Eur J Med Chem, 2017).

How the values were obtained:
[1] = test system: 4T1; assay: Anti-tumor activity against mouse 4T1 cells implanted in BALB/c mdb mouse assessed as tumor growth inhibition at 25 umol/kg, ip administered 3 times weekly measured on day 29 post cell innoculum relative to control; conditions: 4T1, ip, 696 h, read-out: TGI
[2] = test system: LoVo; assay: Potency index, ratio of sulforaphane IC50 to compound IC50 for human LoVo cells; type: functional
[3] = test system: LoVo; assay: Cytotoxicity against human LoVo cells after 72 hrs by sulforhodamine B assay; type: functional, cell-based
[4] = Potency index, ratio of benzyl isothiocyanate IC50 to compound IC50 for human LoVo/DX cell; type: functional
[5] = Cytotoxicity against human LoVo/DX cells after 72 hrs by sulforhodamine B assay; type: functional, cell-based
[6] = test system: LoVo; assay: Potency index, ratio of benzyl isothiocyanate IC50 to compound IC50 for human LoVo cells; type: functional
[7] = Potency index, ratio of sulforaphane IC50 to compound IC50 for human LoVo/DX cell; type: functional

O=P1(N(CCCl)CCCl)NCCCO1 (configuration not stated) [CYCLOPHOSPHAMIDE ANHYDROUS]
inhibition in vivo at 25 µmol/kg [1]: 33.3%

CC(C)COP(=O)(CCN=C=S)OCC(C)C
Ratio IC50 [2]: 10 | IC50 [3]: 1900 nM | Ratio IC50 [4]: 5 | IC50 [5]: 2600 nM | Ratio IC50 [6]: 5 | Ratio IC50 [7]: 10
